Measured values reported in US20140296484A1, “Cyclin Based Inhibitors of CDK2 and CDK4” (University of South Carolina, priority 2013, published 2014).
“And” between values parts separate entries of the source, which are not always exact repeats. Equal entries are not always repeated. Where two headings read alike, the source gives them in different places. Values belong to the compound of their own block, whether it stands above or below them. Where a SMILES comes first, the peptide text is derived from it. Where no end group is shown, it is not given here. [ ]: non-standard residue; d: D form. The star is where a group is joined. X2 = O=C(c1ccc(-c2ccc(Cl)cc2)o1)*; 3Pal = N[C@@H](Cc1cccnc1)C(=O)O; 3Thi = N[C@@H](Cc1ccsc1)C(=O)O; Bz = O=C(c1ccccc1)*

Key:
[1] = Fluorescence polarization (FP) competitive binding assay; details: Table 20; read-out: CDK2/Cyclin A IC050
Method: (§1) In order to assess the contribution of the PLA H-bond acceptor, analogous compounds were made in each series and activities for the 4-chloro and 3,5-dichloro analog were evaluated in each context.
(§2) Several additional analogs were synthesized in addition to the 3,5 dichloro and 4-chlorophenyl analogs. In addition to determining their inhibition of CDK2/cyclin A, the availability of the CDK4/cyclin D1 binding assay was exploited to develop SAR for both kinases.
(§3) Once the compounds were characterized, their binding affinities were tested by FP assay.

[2] = target: CDK2/cyclin A (Homo sapiens, UniProt P20248); assay: as above
Method: as §3

[3] = target: T1, CDK4/Cyclin D1 (Homo sapiens, UniProt P24385); assay: as above
T1 sequence (P24385 whole entry): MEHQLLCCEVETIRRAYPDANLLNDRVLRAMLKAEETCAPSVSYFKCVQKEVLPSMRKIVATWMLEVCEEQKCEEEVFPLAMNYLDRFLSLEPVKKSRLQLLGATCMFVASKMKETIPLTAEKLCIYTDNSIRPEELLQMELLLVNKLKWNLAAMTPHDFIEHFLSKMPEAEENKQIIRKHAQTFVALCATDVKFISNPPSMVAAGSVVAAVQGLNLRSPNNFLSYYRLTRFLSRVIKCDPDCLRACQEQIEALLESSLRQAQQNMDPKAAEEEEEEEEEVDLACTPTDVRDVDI
T1 sequence (P11802 whole entry partner): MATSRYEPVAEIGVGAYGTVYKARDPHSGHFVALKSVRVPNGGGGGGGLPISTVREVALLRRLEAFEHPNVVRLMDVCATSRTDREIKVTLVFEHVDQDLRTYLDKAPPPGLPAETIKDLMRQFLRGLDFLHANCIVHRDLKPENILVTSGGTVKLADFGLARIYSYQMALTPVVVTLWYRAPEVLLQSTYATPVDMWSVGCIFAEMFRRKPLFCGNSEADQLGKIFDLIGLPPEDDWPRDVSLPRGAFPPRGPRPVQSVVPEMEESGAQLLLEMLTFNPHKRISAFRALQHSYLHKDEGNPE
Method: as §1, §2, §3

[4] = target: CDK2/Cyclin A2 (Homo sapiens, UniProt P20248); assay: In vitro kinase assay, 32P filter capture with GST-Rb substrate; type: biochemical
[5] = target: CDK2/E (Homo sapiens, UniProt P24864); assay: In vitro kinase assay
[6] = target: T1, CDK4/Cyclin D1; assay: In vitro kinase assay, 32P filter capture with GST-Rb substrate; type: biochemical; details: CDK4/cyclin D1 vs CDK2/cyclin A
[7] = test system: Colo-205 human colon carcinoma xenografts; details: oral administration to mice bearing Colo-205 xenografts; cited from earlier work
[8] = test system: 36 other protein kinases; details: cited from earlier work
[9] = test system: retinoblastoma (Rb)-positive tumor cells; details: cited from earlier work
[10] = competitive binding (FP) assay, read-out: CDK2/Cyclin A IC50
[11] = Table 15, read-out: CDK2/Cyclin D1 IC50
[12] = Table 10, Scaffold III N-caps on the peptide link, read-out: IC50 CDK2/A2

Compound: Cc1nc(C(=O)NC(CCCNC(=N)N)C(=O)NC(CC(C)C)C(=O)NCCCc2ccccc2)nn1-c1cc(Cl)cc(Cl)c1 (stereo not shown) [compound 6004]
IC50 [3, 11]: > 180 µM
IC50 [2, 10]: 57.7 µM

Compound: Cc1nc(C(=O)N[C@@H](CCCNC(=N)N)C(=O)NC(CC(C)C)C(=O)NCCCc2ccccc2)nn1-c1cc(Cl)cc(Cl)c1 (stereo partly shown) [SCCP 6004]
IC50 [2, 10]: 57.7 µM

Compound: CC[C@H](C)[C@H](NC(=O)[C@H](CC(C)C)NC(=O)[C@H](CCCNC(=N)N)NC(=O)c1ccccc1)C(=O)N[C@@H](Cc1ccccc1)C(N)=O [compound 5857] (Bz-RLIF-NH2)
IC50 [3]: 100 to 180 µM
IC50 [2]: > 100 µM

Compound: Cc1nc(C(=O)N[C@@H](CCCNC(=N)N)C(=O)NC(CC(=O)NCc2ccccc2)CC(C)C)nn1-c1cc(Cl)cc(Cl)c1 (stereo partly shown) [compound 6000]
IC50 [3, 11]: > 180 µM
IC50 [2, 10]: > 180 µM

Compound: 5921 (RLIF; also: C7H16N2 group attached) [compound 5921]
IC50 [2, 12]: 6.04 µM and 6.6 µM

Compound: COc1ccccc1CC(CC(C)C)NC(=O)C(CCCCNC(=N)N)NC(=O)c1nc(C)n(-c2cc(Cl)cc(Cl)c2)n1 (stereo not shown) [compound 5982]
IC50 [1]: > 180 µM
IC50 [2, 10]: > 180 µM

Compound: CC(C)C[C@@H](CC(=O)NCc1cccc(Oc2ccccc2)c1)NC(=O)[C@H](CCCNC(=N)N)NC(=O)[C@@H](N)CCCNC(=N)N [SCCP 5624, Arg-Arg-β-homoleucyl-3-phenoxybenzylamid]
selectivity [6]: selective for CDK4/cyclin D1

Compound: 5919 (RLIF) [compound 5919]
IC50 [2, 12]: 16.7 µM

Compound: CC(=O)c1c(C)c2cnc(Nc3ccc(N4CCNCC4)cn3)nc2n(C2CCCC2)c1=O [PD0332991]
tumor response [7]: marked tumor regression
activity against 36 other protein kinases [8]: no activity
antiproliferative activity [9]: potent antiproliferative agent

Other lines, results leading:

IC50 [1]: > 180 µM
IC50 [2, 10]: > 180 µM
Compound: CCOc1ccccc1C(CC(C)C)NC(=O)C(CCCCNC(=N)N)NC(=O)c1nc(C)n(-c2cc(Cl)cc(Cl)c2)n1 (stereo not shown) [compound 5984]

IC50 [3, 11]: > 180 µM
IC50 [2, 10]: > 180 µM
Compound: CCN(CCCc1ccccc1)C(=O)C(CC(C)C)NC(=O)[C@H](CCCNC(=N)N)NC(=O)c1nc(C)n(-c2cc(Cl)cc(Cl)c2)n1 (stereo partly shown) [compound 6005]

IC50 [3, 11]: > 180 µM
IC50 [2, 10]: > 180 µM
Compound: CCN(Cc1ccccc1)C(=O)CC(CC(C)C)NC(=O)[C@H](CCCNC(=N)N)NC(=O)c1nc(C)n(-c2cc(Cl)cc(Cl)c2)n1 (stereo partly shown) [compound 6001]

fold less potent relative to the triazole N capping group ([3]; CDK4/cyclin D1 context): 25 fold
Compound: CC[C@H](C)[C@H](NC(=O)[C@H](CC(C)C)NC(=O)[C@H](CCCNC(=N)N)NC(=O)c1ccc(-c2ccc(Cl)cc2)o1)C(=O)N[C@@H](Cc1ccccc1)C(=O)O [SCCP 5770] (X2-RLIF-OH)

IC50 [1]: > 180 µM
IC50 [2, 10]: > 180 µM
Compound: Cc1nc(C(=O)NC(CCCCNC(=N)N)C(=O)NC(CC(C)C)c2ccccc2OCC(C)C)nn1-c1cc(Cl)cc(Cl)c1 (stereo not shown) [compound 5978]

IC50 [1]: > 180 µM
IC50 [2, 10]: > 180 µM
Compound: CCCOc1ccc(C)cc1C(CC(C)C)NC(=O)C(CCCCNC(=N)N)NC(=O)c1nc(C)n(-c2cc(Cl)cc(Cl)c2)n1 (stereo not shown) [compound 5980]

IC50 [4]: 25 µM
Compound: CC[C@H](C)[C@H](NC(=O)[C@H](CC(C)C)NC(=O)[C@H](CCCNC(=N)N)NC(=O)[C@H](CCCNC(=N)N)NC(=O)[C@H](CCCCN)NC(=O)[C@H](C)NC(=O)[C@@H](N)Cc1c[nH]cn1)C(=O)N[C@@H](Cc1ccsc1)C(N)=O [HAKRRLIX3] (H-HAKRRLI[3Thi]-NH2)

IC50 [5]: 1.3 µM
IC50 [4]: 6.1 µM
Compound: CC[C@H](C)[C@H](NC(=O)[C@H](CC(C)C)NC(=O)[C@H](CCCNC(=N)N)NC(=O)[C@H](CCCNC(=N)N)NC(=O)[C@H](CCCCN)NC(=O)[C@H](C)NC(=O)[C@@H](N)Cc1c[nH]cn1)C(=O)N[C@@H](Cc1ccco1)C(N)=O [HAKRRLIX1]

IC50 [4]: 29 µM
Compound: CC[C@H](C)[C@H](NC(=O)[C@H](CC(C)C)NC(=O)[C@H](CCCNC(=N)N)NC(=O)[C@H](CCCNC(=N)N)NC(=O)[C@H](CCCCN)NC(=O)[C@H](C)NC(=O)[C@@H](N)Cc1c[nH]cn1)C(=O)N[C@@H](Cc1cccnc1)C(N)=O [HAKRRLIX7] (H-HAKRRLI[3Pal]-NH2)

IC50 [2, 12]: 5.86 µM
Compound: 5920 (RLIF; also: OH in table column, meaning not given here) [compound 5920]
